Experimental data as given in US20110300142A1, “USE OF ZEBURALINE FOR THE TREATMENT OF AUTOIMMUNE DISEASES OR IMMUNE REJECTION OF TRANSPLANTS” (priority 2007, published 2011).

Legend:
[1] = test system: human lymphocytes; test: Proliferation of stimulated human lymphocytes; format: cell-based
Procedure: (§1) FIG. 4A show proliferation of stimulated human lymphocytes after five days in culture in the presence of zebularine at different concentrations, FIG. 4B show restoration of inhibited proliferation of stimulated human lymphocytes after five days in culture in the presence of zebularine at two different concentrations and the IDO inhibitor 1-methyl tryptophane at 100 μM and FIG. 4C show proliferation of stimulated rat spleen lymphocytes after four days in culture in the presence of zebularine at different concentrations.
(§2) In an experiment the inventors tested the immunogenicity of genetically engineered rat colon cancer cells expressing rat interleukin 12. These cancer cells have repeatedly been used to immunize rats that create a strong immune response towards the rat tumour cells. […] This was congruent with the changes in expression of IDO (FIG. 3). […] There is a very reproducible induction of IDO (about 20-fold) from different human leukocyte cultures with a slight interindividual variation.

[2] = test system: bladder carcinoma cells; details: zebularine 500-1000 mg/kg; cited from earlier work
[3] = cited from earlier work
[4] = test system: rat spleen lymphocytes; test: Proliferation of stimulated rat spleen lymphocytes; format: cell-based; details: rat spleen cells
Procedure: as §1, §2

[5] = compared to azacytidine or 2′-deoxy-azacytidine; cited from earlier work
[6] = test system: IDO; test: IDO induction in human buffy coat leukocyte cultures; format: cell-based; details: different human leukocyte cultures, slight interindividual variation
Description: as §2

[7] = test system: rat colon cancer cells; test: Immunization of rats with zebularine-pretreated tumour cells; proliferative response of spleen cells / immunogenicity; format: in vivo
Procedure: (§3) The treatment with 100 μM of zebularine induced IDO mRNA expression in all three cell lines. A 48-fold increase of the IDO mRNA level in the H1D2WT cell line, a 24-fold increase in the H1D2IL12C46 cell line and a 14-fold increase in the H1D2IL18C2 cell line were detected. […] The inventors know that the 100 μM treatment of tumour cells strongly induces the production of the immunosuppressive molecule IDO but the induction of other T cell immunosuppressive molecules might also be involved, although no evidence has been found for an effect on prostaglandine E2 (PGE2) or nitric oxide (NO) production. It seems that the 100 μM zebularine treatments are not affecting the PGE2 production, the NO production, or the production of tumour antigens.
as §2

[8] = test system: IDO mRNA expression; test: qRT-PCR analysis of IDO mRNA expression in rat colon cancer cell lines; format: cell-based; details: for increase of the IDO mRNA level: 100 μM zebularine, normalized to HPRT
Procedure: The values given are normalized in relation to the HPRT expression values.
as §3

[9] = test system: tumour cells; test: PGE2, NO and tumour antigen production of treated tumour cells; format: cell-based, rat; details: 100 μM zebularine treatment
Procedure: as §3

[10] = test system: p16 gene expression; details: zebularine 100-500 μM; cited from earlier work
[11] = test system: IDO; test: IDO production in rat spleen cells; format: cell-based; details: similar treatment (100 μM)
Description: as §2

[12] = mouse, cited from earlier work

Cn1cc(C[C@H](N)C(=O)O)c2ccccc21 [1-methyl tryptophan, reference compound]
effect on zebularine-induced suppression of proliferation ([1]; IDO inhibitor added to zebularine-treated stimulated human lymphocytes, 100 μM, five days): can be blocked

O=c1ncccn1[C@@H]1O[C@H](CO)[C@@H](O)[C@H]1O [zebularine, 1-(β-D-Ribofuranosyl)-1,2-dihydropyrimidin-2-one]
in vivo p16 gene expression [2]: induced
tumour volume [2]: reduced
solubility in water [3]: soluble in water
polyclonal lymphocyte proliferation [4]: strong suppression
stability [5]: stable
toxicity [5]: not very toxic
induction of IDO [6]: about 20 fold
polyclonal lymphocyte proliferation ([1]; human buffy coat leukocytes): strong suppression
immunogenicity of rat colon cancer cells expressing rat interleukin 12 when used for immunization ([7]; cells pre-treated with 100 μM zebularine): less immunogenic
proliferative response of non-adherent spleen cells stimulated with tumor cells in vitro ([7]; rats immunized with tumour cells pretreated with 100 μM zebularine): very weak proliferative response
production of IDO ([8]; 100 μM): strongly enhance
increase of the IDO mRNA level ([8]; H1D2IL12C46 cell line): 24 fold
increase of the IDO mRNA level ([8]; H1D2IL18C2 cell line): 14 fold
increase of the IDO mRNA level ([8]; H1D2WT cell line): 48 fold
NO production [9]: not affecting
PGE2 production [9]: not affecting
production of tumour antigens [9]: not affecting
p16 gene expression [10]: induces p16 gene expression
IDO production [11]: enhanced IDO production
fraction of dose absorbed in tissues ([12]; i.v., 100 mg/kg, plasma, red blood cells, liver, kidney, spleen, heart, lung, muscle, Duodenum, Jejunum, Ileum, Colon and Carcass): about 60%
bioavailability after i.v. injection ([12]; i.v.): good
bioavailability for Fat, Brain, Testes, Cecum and Stomach ([12]; i.v.): less
turnover in tissues ([12]; many tissues): quite fast
metabolites [12]: uridine, uracil and dihydrouracil
